{"source": "ChEMBL document CHEMBL1201862", "about": "“PubChem BioAssay data set” (2004)", "test_in_all_cases": "NCI-60 cell line screen, 48 h", "key": {"786-0": {"test_system": "786-0"}, "BT-549": {"test_system": "BT-549"}, "DU-145": {"test_system": "DU-145"}, "HCT-15": {"test_system": "HCT-15"}, "HL-60": {"test_system": "HL-60"}, "HT-29": {"test_system": "HT-29"}, "IGROV-1": {"test_system": "IGROV-1"}, "K562": {"test_system": "K562"}, "LOX IMVI": {"test_system": "LOX IMVI"}, "MCF7": {"test_system": "MCF7"}, "Malme-3M": {"test_system": "Malme-3M"}, "NCI-H226": {"test_system": "NCI-H226"}, "NCI-H460": {"test_system": "NCI-H460"}, "SK-MEL-28": {"test_system": "SK-MEL-28"}, "SK-MEL-2": {"test_system": "SK-MEL-2"}, "SN12C": {"test_system": "SN12C"}, "SNB-75": {"test_system": "SNB-75"}, "SR": {"test_system": "SR"}, "SW-620": {"test_system": "SW-620"}, "COLO 205": {"test_system": "COLO 205"}}, "note": "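Grown in 96-well plates, cells were treated for 48 hours with each compound at five concentrations. Insufficient inhibition: endpoint recorded as highest concentration tested. At the GI50, growth is halved.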 Active and inactive are the calls of the source. No stated cut-off is given here; in the data, active = GI50 up to about 1.1 µM and inactive = higher."}
{"compound": "Cc1ccc(/C=C2\\Cc3cc(C)c(C)cc3C2=O)c(C(=O)O)c1", "values": [{"measurement": "GI50", "setting": "786-0", "value": "40.2 µM (inactive)"}, {"measurement": "GI50", "setting": "BT-549", "value": "16.3 µM (inactive)"}, {"measurement": "GI50", "setting": "DU-145", "value": "26.7 µM (inactive)"}, {"measurement": "GI50", "setting": "HCT-15", "value": 27.5, "unit": "µM"}, {"measurement": "GI50", "setting": "HL-60", "value": "54.3 µM (inactive)"}, {"measurement": "GI50", "setting": "HT-29", "value": "33.3 µM (inactive)"}, {"measurement": "GI50", "setting": "IGROV-1", "value": "37.8 µM (inactive)"}, {"measurement": "GI50", "setting": "K562", "value": "44.1 µM (inactive)"}, {"measurement": "GI50", "setting": "LOX IMVI", "value": "31 µM (inactive)"}, {"measurement": "GI50", "setting": "MCF7", "value": "24.7 µM (inactive)"}, {"measurement": "GI50", "setting": "Malme-3M", "value": "42.1 µM (inactive)"}, {"measurement": "GI50", "setting": "NCI-H226", "value": "19.3 µM (inactive)"}, {"measurement": "GI50", "setting": "NCI-H460", "value": "33.7 µM (inactive)"}, {"measurement": "GI50", "setting": "SK-MEL-28", "value": "52.5 µM (inactive)"}, {"measurement": "GI50", "setting": "SK-MEL-2", "value": "45.6 µM (inactive)"}, {"measurement": "GI50", "setting": "SN12C", "value": "30.5 µM (inactive)"}, {"measurement": "GI50", "setting": "SNB-75", "value": "30.3 µM (inactive)"}, {"measurement": "GI50", "setting": "SR", "value": "52.2 µM (inactive)"}, {"measurement": "GI50", "setting": "SW-620", "value": "34.6 µM (inactive)"}]}
{"compound": "CCC(/C=C/c1ccccc1)=N\\NC(=S)N/N=C(/C=C/c1ccccc1)CC", "values": [{"measurement": "GI50", "setting": "786-0", "value": "48 µM (inactive)"}, {"measurement": "GI50", "setting": "BT-549", "value": "> 100 µM (inactive)"}, {"measurement": "GI50", "setting": "COLO 205", "value": "30.8 µM (inactive)"}, {"measurement": "GI50", "setting": "DU-145", "value": "26.1 µM (inactive)"}, {"measurement": "GI50", "setting": "HCT-15", "value": 26.5, "unit": "µM"}, {"measurement": "GI50", "setting": "HL-60", "value": "19.6 µM (inactive)"}, {"measurement": "GI50", "setting": "HT-29", "value": "55.1 µM (inactive)"}, {"measurement": "GI50", "setting": "IGROV-1", "value": "55.8 µM (inactive)"}, {"measurement": "GI50", "setting": "K562", "value": "19.6 µM (inactive)"}, {"measurement": "GI50", "setting": "LOX IMVI", "value": "21.3 µM (inactive)"}, {"measurement": "GI50", "setting": "MCF7", "value": "41.8 µM (inactive)"}, {"measurement": "GI50", "setting": "Malme-3M", "value": "90.8 µM (inactive)"}, {"measurement": "GI50", "setting": "NCI-H226", "value": "32.2 µM (inactive)"}, {"measurement": "GI50", "setting": "NCI-H460", "value": "13.2 µM (inactive)"}, {"measurement": "GI50", "setting": "SK-MEL-28", "value": "> 100 µM (inactive)"}, {"measurement": "GI50", "setting": "SN12C", "value": "36.6 µM (inactive)"}, {"measurement": "GI50", "setting": "SNB-75", "value": "> 100 µM (inactive)"}, {"measurement": "GI50", "setting": "SR", "value": "16.9 µM (inactive)"}, {"measurement": "GI50", "setting": "SW-620", "value": "> 100 µM (inactive)"}]}
{"compound": "N#CC1=C(N)N(/N=C/c2ccccc2)C(c2ccccc2)C1(C#N)C#N", "note": "(stereo not drawn)", "values": [{"measurement": "GI50", "setting": "786-0", "value": "4.7 µM (inactive)"}, {"measurement": "GI50", "setting": "BT-549", "value": "14.6 µM (inactive)"}, {"measurement": "GI50", "setting": "COLO 205", "value": "2.19 µM (inactive)"}, {"measurement": "GI50", "setting": "DU-145", "value": "16.5 µM (inactive)"}, {"measurement": "GI50", "setting": "HCT-15", "value": 6.75, "unit": "µM"}, {"measurement": "GI50", "setting": "HL-60", "value": "2.19 µM (inactive)"}, {"measurement": "GI50", "setting": "HT-29", "value": "4 µM (inactive)"}, {"measurement": "GI50", "setting": "IGROV-1", "value": "13.7 µM (inactive)"}, {"measurement": "GI50", "setting": "K562", "value": "2.98 µM (inactive)"}, {"measurement": "GI50", "setting": "LOX IMVI", "value": "4.14 µM (inactive)"}, {"measurement": "GI50", "setting": "MCF7", "value": "8.17 µM (inactive)"}, {"measurement": "GI50", "setting": "Malme-3M", "value": "2.07 µM (inactive)"}, {"measurement": "GI50", "setting": "NCI-H226", "value": "18.6 µM (inactive)"}, {"measurement": "GI50", "setting": "SK-MEL-28", "value": "4.79 µM (inactive)"}, {"measurement": "GI50", "setting": "SK-MEL-2", "value": "17.2 µM (inactive)"}, {"measurement": "GI50", "setting": "SN12C", "value": "14.6 µM (inactive)"}, {"measurement": "GI50", "setting": "SNB-75", "value": "16.9 µM (inactive)"}, {"measurement": "GI50", "setting": "SR", "value": "2.26 µM (inactive)"}, {"measurement": "GI50", "setting": "SW-620", "value": "5.18 µM (inactive)"}]}
{"compound": "O=C1NC(N2CCOCC2)=N/C1=C\\c1ccccc1", "values": [{"measurement": "GI50", "setting": "786-0", "value": "> 100 µM (inactive)"}, {"measurement": "GI50", "setting": "BT-549", "value": "> 100 µM (inactive)"}, {"measurement": "GI50", "setting": "COLO 205", "value": "> 100 µM (inactive)"}, {"measurement": "GI50", "setting": "DU-145", "value": "> 100 µM (inactive)"}, {"measurement": "GI50", "setting": "HCT-15", "value": "> 100", "unit": "µM"}, {"measurement": "GI50", "setting": "HL-60", "value": "> 100 µM (inactive)"}, {"measurement": "GI50", "setting": "HT-29", "value": "> 100 µM (inactive)"}, {"measurement": "GI50", "setting": "IGROV-1", "value": "> 100 µM (inactive)"}, {"measurement": "GI50", "setting": "LOX IMVI", "value": "> 100 µM (inactive)"}, {"measurement": "GI50", "setting": "MCF7", "value": "> 100 µM (inactive)"}, {"measurement": "GI50", "setting": "Malme-3M", "value": "> 100 µM (inactive)"}, {"measurement": "GI50", "setting": "NCI-H226", "value": "> 100 µM (inactive)"}, {"measurement": "GI50", "setting": "SK-MEL-28", "value": "> 100 µM (inactive)"}, {"measurement": "GI50", "setting": "SK-MEL-2", "value": "> 100 µM (inactive)"}, {"measurement": "GI50", "setting": "SN12C", "value": "> 100 µM (inactive)"}, {"measurement": "GI50", "setting": "SNB-75", "value": "> 100 µM (inactive)"}, {"measurement": "GI50", "setting": "SR", "value": "> 100 µM (inactive)"}, {"measurement": "GI50", "setting": "SW-620", "value": "> 100 µM (inactive)"}]}
{"compound": "Cc1ccc(N2C(=O)C(=O)N(/N=C3\\C(=O)Nc4ccccc43)C2=S)cc1", "values": [{"measurement": "GI50", "setting": "786-0", "value": "46.6 µM (inactive)"}, {"measurement": "GI50", "setting": "BT-549", "value": "85.3 µM (inactive)"}, {"measurement": "GI50", "setting": "COLO 205", "value": "42 µM (inactive)"}, {"measurement": "GI50", "setting": "DU-145", "value": "> 100 µM (inactive)"}, {"measurement": "GI50", "setting": "HCT-15", "value": 39.8, "unit": "µM"}, {"measurement": "GI50", "setting": "HL-60", "value": "0.0998 µM (active)"}, {"measurement": "GI50", "setting": "HT-29", "value": "58.6 µM (inactive)"}, {"measurement": "GI50", "setting": "IGROV-1", "value": "95.5 µM (inactive)"}, {"measurement": "GI50", "setting": "K562", "value": "37.1 µM (inactive)"}, {"measurement": "GI50", "setting": "LOX IMVI", "value": "31.6 µM (inactive)"}, {"measurement": "GI50", "setting": "MCF7", "value": "43.2 µM (inactive)"}, {"measurement": "GI50", "setting": "Malme-3M", "value": "> 100 µM (inactive)"}, {"measurement": "GI50", "setting": "NCI-H460", "value": "31.5 µM (inactive)"}, {"measurement": "GI50", "setting": "SK-MEL-28", "value": "> 100 µM (inactive)"}, {"measurement": "GI50", "setting": "SK-MEL-2", "value": "30.3 µM (inactive)"}, {"measurement": "GI50", "setting": "SN12C", "value": "> 100 µM (inactive)"}, {"measurement": "GI50", "setting": "SNB-75", "value": "> 100 µM (inactive)"}, {"measurement": "GI50", "setting": "SR", "value": "38.7 µM (inactive)"}, {"measurement": "GI50", "setting": "SW-620", "value": "44.2 µM (inactive)"}]}
{"compound": "C=CCc1cccc2cc(C(=O)Nc3ccccn3)c(=N)oc12", "values": [{"measurement": "GI50", "setting": "786-0", "value": "28.7 µM (inactive)"}, {"measurement": "GI50", "setting": "BT-549", "value": "> 100 µM (inactive)"}, {"measurement": "GI50", "setting": "COLO 205", "value": "> 100 µM (inactive)"}, {"measurement": "GI50", "setting": "DU-145", "value": "> 100 µM (inactive)"}, {"measurement": "GI50", "setting": "HCT-15", "value": "> 100", "unit": "µM"}, {"measurement": "GI50", "setting": "HL-60", "value": "> 100 µM (inactive)"}, {"measurement": "GI50", "setting": "HT-29", "value": "> 100 µM (inactive)"}, {"measurement": "GI50", "setting": "IGROV-1", "value": "> 100 µM (inactive)"}, {"measurement": "GI50", "setting": "K562", "value": "> 100 µM (inactive)"}, {"measurement": "GI50", "setting": "LOX IMVI", "value": "> 100 µM (inactive)"}, {"measurement": "GI50", "setting": "MCF7", "value": "> 100 µM (inactive)"}, {"measurement": "GI50", "setting": "NCI-H226", "value": "> 100 µM (inactive)"}, {"measurement": "GI50", "setting": "NCI-H460", "value": "> 100 µM (inactive)"}, {"measurement": "GI50", "setting": "SK-MEL-28", "value": "> 100 µM (inactive)"}, {"measurement": "GI50", "setting": "SK-MEL-2", "value": "> 100 µM (inactive)"}, {"measurement": "GI50", "setting": "SN12C", "value": "> 100 µM (inactive)"}, {"measurement": "GI50", "setting": "SNB-75", "value": "> 100 µM (inactive)"}, {"measurement": "GI50", "setting": "SR", "value": "> 100 µM (inactive)"}, {"measurement": "GI50", "setting": "SW-620", "value": "> 100 µM (inactive)"}]}
